Measurements as given in US20080025997A1, “Cysteine-rich region of respiratory syncytial virus and methods of use therefor” (priority 2004, published 2008).

Tests used:
[1] = test system: purified human monocytes; experiment: Monocyte cytokine production upon exposure to RSV and recombinant RSV viruses
Experimental: (§1) Human PBMC were isolated from leukopaks using Histopaque (Sigma, St. Louis, Mo.). Monocytes were isolated using the Monocyte Isolation Kit II (positive selection for CD3, CD7, CD16, CD19, CD56, CD123, and glycophorin A, MiltenyiBiotec) with Macs LS separation columns. Remaining cells were >90% monocytes by anti-CD14 staining and forward- and side-light scatter analysis using FACScan (Becton-Dickinson, Elmhust, Ill.).
(§2) Purified monocytes were stimulated with LPS (1 μg) or purified proteins F or Glycoprotein (3 μg; kindly provided by V. Randolph, Wyeth Lederle, N.Y.). All rRSV variants were grown in Hep-2 cells and Vero cells as described^29,30, and used at 10^5 pfu multiplicity of infection (MOI)=1] for stimulations. Lysate of Hep-2 cells and Vero cells were used as control stimuli. UV-inactivation was performed as described elsewhere19^5 and lack of virus replication confirmed in cell culture. […] An additional peptide encoding the conserved 13 amino acid region upstream of the GCRR (164-176)^3 was also used in add-back experiments. […] The GCRR and control peptides included biotin-SGSG at the amino termini. The anti-CX3CR1 antibody was kindly provided by P. Murphy, NIAID, NIH and used as described^18. […] Cytokines were measured in supernatant fluids 18 hours after stimulation by immunoassay following manufacturer's instructions (Biosource Europe S. A, Belgium).

[2] = test system: purified human monocytes; experiment: F protein-mediated cytokine production by purified human monocytes; conditions: for effect on F-induced IL-6 production: added to F-treated monocytes
Experimental: as §1
(§3) Purified monocytes were stimulated with LPS (1 μg) or purified proteins F or Glycoprotein (3 μg; kindly provided by V. Randolph, Wyeth Lederle, N.Y.). All rRSV variants were grown in Hep-2 cells and Vero cells as described^29,30, and used at 10^5 pfu multiplicity of infection (MOI)=1] for stimulations. Lysate of Hep-2 cells and Vero cells were used as control stimuli. UV-inactivation was performed as described elsewhere19^5 and lack of virus replication confirmed in cell culture. […] An additional peptide encoding the conserved 13 amino acid region upstream of the GCRR (164-176)^3 was also used in add-back experiments. […] The GCRR and control peptides included biotin-SGSG at the amino termini. The anti-CX3CR1 antibody was kindly provided by P. Murphy, NIAID, NIH and used as described^18. For supplemental experiments, we used peptidoglycan (PGN; Fluka, Sigma) at 10 μg and CpGDNA (GTCGTT; HyCult Biotechnology) at 1 mM. Cytokines were measured in supernatant fluids 18 hours after stimulation by immunoassay following manufacturer's instructions (Biosource Europe S. A, Belgium).

[3] = test system: TLR9; experiment: CpGDNA-stimulated cytokine production by human monocytes; conditions: co-incubation
Experimental: as §1, §2

[4] = test system: murine alveolar macrophages; experiment: Cytokine production by murine alveolar macrophages incubated with purified proteins and recombinant viruses; format: cell-based; conditions: macrophages from naive mice
Experimental: Alveolar macrophages were obtained by bronchoalveolar lavage (BAL) followed by magentic bead depletion (Militenyi Biotec, Germany). Macrophages were incubated with brefeldin A for six hours, fixed with commercially available fixation and permeabilization reagents, CYTOFIX/CYTOPERM (Becton Dickinson, Elmhust, Ill.), and stained using phycoerythrin (PE)-conjugated anti-IL-6 antibody (Becton Dickinson). Data was analyzed using side and forward scatter plots and FACScan (Becton Dickinson).

[5] = test system: TLR2; experiment: PGN-stimulated cytokine production by human monocytes; conditions: co-incubation
Experimental: as §1, §2

[6] = test system: RSV; conditions: Glycoprotein added to F protein during immunization; cited from earlier work
[7] = test system: NF-κB; experiment: NF-κB nuclear translocation immunoassay in human monocytes; format: cell-based; conditions: 60 min; purified protein or live virus stimulation
Experimental: Human monocytes were stimulated with purified RSV F and/or Glycoprotein (1 μg each) or indicated viruses for 60 minutes. After stimulation nuclear extracts were obtained using a hypotonic lysis buffer (10 mM HEPES (pH 7.9), 1.5 mM MgCl2, 10 mM KCl, 0.5 mM DTT, 0.1% Triton X-100 and protease inhibitors) and an extraction buffer (20 mM HEPES (pH 7.9), 1.5 mM MgCl2, 0.42 M NaCl, 0.5 mM DTT, 0.2 mM EDTA, 1.0% Igepal CA-630, 25% (v/v) glycerol and protease inhibitors). NF-κB subunits p50 and p65 were detected by a modified immunoassay using a double stranded biotinylated oligonucleotide containing the consensus sequence for NF-κB binding (5′-GGGACTTTCC-3′) [SEQ ID NO:______] (Chemicon International, Germany).

[8] = test system: TLR4; experiment: Endotoxin (LPS)-mediated cytokine production by human monocytes; conditions: for effect on LPS-induced cytokine production (IL-6, IL-1β): added to LPS-treated monocytes
Experimental: as §1, §3

## G^164-176: Glycoprotein peptide encompassing amino acids 164-176, conserved 13 amino acid segment upstream of the GCRR
[1]; peptide added with ΔG
  modulation of IL-6 production by ΔG: failed to modulate IL-6 production

## Glycoprotein: purified RSV attachment Glycoprotein from subgroup A (A2 strain)
[1]; added to mG-infected monocytes
  IL-6 response of mG-infected cells after add-back to culture media: restored to levels similar to those elicited by RSV
[2]; F + Glycoprotein, P<0.01
  decrease in IL-6 production compared to monocytes incubated with F alone: approximately 1.5 log
[2]; not shown
  effect on F-induced IL-1β or IL-10 in supernatant fluids: inhibitory effect similar to that observed for Glycoprotein on F-induced IL-6 production
[2]; supernatant fluids, 18 hours, immunoassay
  IL-6 production by monocytes incubated with purified protein alone: low
[3]
  cytokine production elicited by TLR9 agonist CpGDNA: inhibited
[4]
  cytokine production in murine alveolar macrophages: modulating the innate responses elicited by both purified F and RSV
[5]
  cytokine production elicited by TLR2 agonist PGN: inhibited
[6]
  decrease in production of interferon-γ upon RSV challenge vs immunization with F alone: up to 70 fold
[7]
  NF-κB nuclear translocation: decreased

## GlycoproteinA peptide (residues 273-288): control peptide within the Glycoprotein mucin-like domain [reference compound]
[2]
  effect on F-induced IL-6 production: inhibitory effect was not observed

## HFEVFNFVPCSICSNNPTCWAICKRI [GCRR peptide]
[2]
  effect on F-induced IL-6 production: dose-dependent inhibition
[8]
  effect on IL-10 production of monocytes incubated with LPS: affected production of IL-10
  effect on LPS-induced cytokine production (IL-6, IL-1β): dose-dependent inhibition of cytokine production

## HFEVFNFVPSSISSNNPTSWAISKRI [GSRR, reference compound]
[8]
  effect on LPS-induced cytokine production (IL-6, IL-1β): no effect

## YFARGPGIHIRKR [HIV V3 loop control peptide, reference compound]
[2]
  effect on F-induced IL-6 production: inhibitory effect was not observed
[8]
  effect on LPS-induced cytokine production (IL-6, IL-1β): no effect

## bovine serum albumin [reference compound]
[2]
  effect on F-induced IL-6 production: no effect
